Data reported in patent US6083941A, “Inhibition of NMDA receptor activity by pregnenolone sulfate derivatives” (Trustees of Boston University, priority 1998, dated 2000).
Entries after “also recorded” stand apart in the source; their conditions may differ. Counter-ions that a name gives are not always drawn. Like-named read-outs stand apart in the source and are kept apart here.

What was measured:
[1] = system: NMDA-induced cell death in primary neuronal cultures of rat hippocampal formation; test: Trypan blue exclusion, NMDA-induced cell death (excitotoxicity) in primary hippocampal cultures; assay type: cell-based
Description: Trypan blue exclusion was used to evaluate the ability of derivatives of pregnenolone sulfate to inhibit NMDA-induced cell death in primary neuronal cultures of rat hippocampal formation.
Mixed neuronal and glial cultures of hippocampal tissue were derived from fetal rats on day 18 of embryonic development and were maintained in culture for 16 to 24 days (Brewer, G. J., Brain Res., 494: 65-74 (1989)). Care for the animals used in this study was in accordance with institutional guidelines. Hippocampal tissue from Sprague-Dawley rat pups was collected immediately following removal from dams sacrificed with CO2 on embryonic day 18. Cells were dissociated by trituration in Ca^2 +/Mg^2 + free Hank's basic salt solution supplemented with 4.2 mM bicarbonate, 1 mM sodium pyruvate, 20 mM HEPES, 3 mg/ml BSA, and pelleted by centrifugation (900 rpm, 3 min). The resulting pellet was suspended in DMEM supplemented with 2.4 mg/ml BSA, 26.5 mM sodium bicarbonate, 1 mM sodium pyruvate, 20 mM HEPES, 10% FBS, 100 units/ml penicillin, 100 μg/ml streptomycin, and a modification of Brewers B16 defined components (with […] vitamin B12 and without catalase, glutathione, and superoxide dismutase) (Pike, C. J., et al., Neurosci. 13:1676-87 (1993)) and plated onto poly-L-lysine coated 24 well culture dishes (Nunclon) at a density of 15,000 cells/cm^2 and were maintained in a humidified incubator in 5% CO2 /95% air at 37° C. After 5 days in vitro, nonneuronal cell division was inhibited by exposure to 2×10^-6 M cytosine arabinoside for 48 hrs. Cells were subsequently maintained in medium identical to that used for platting without BSA or FBS.
The number of living neurons was determined by assessing the ability of cells to exclude trypan blue 16 hrs. after the addition of drug solutions to the medium of individual culture wells (Dawson, V. L., et al., Proc. Natl. Acad. Sci. USA, 88:6368-6371 (1991)). Drugs were introduced to cultures in 100 μl of conditioned media, collected from experimental cultures just prior to treatment, to a final volume of 0.5 ml. NMDA was dissolved in DMEM at concentrations of 0-5 mM so that addition of 10 μl yielded final concentrations of 0-100 μM. MK-801, a positive control, was dissolved in DMEM at a concentration of 1 mM so that addition of 5 μl yielded a final concentration of 10 μM. Control cultures were exposed only to an equivalent volume of DMEM, and concentration of DMSO (0.5%). The concentrations of the pregnenolone sulfate derivatives were as follows: 10-100 μM 5β3αS, 100 μM 5β3α hemisuccinate and 200 μM 17β-estradiol hemisuccinate.
After exposure to drugs, the medium was replaced by 0.1 M sodium phosphate buffer/0.4% trypan blue. Cell death was assessed by counting the number of trypan blue positive and negative neurons in five high power fields per culture well with an inverted phase contrast microscope using both bright field and phase settings. Cell death is expressed as the ratio of the number of trypan blue positive to total number of cells counted in each well×100 (percent cell death).

[2] = system: glutamate receptor-mediated spontaneous EPSCs in rat hippocampal neurons; test: Spontaneous excitatory postsynaptic currents (EPSCs), whole-cell recording in cultured hippocampal neurons; assay type: cell-based; settings: for effect on spontaneous EPSCs: cultures of rat hippocampal neurons; for EC50: voltage-clamped at -70 mV, read-out: EC50 of EPSC potentiation
Procedure: Primary cultures of hippocampal neurons were prepared from embryonic day 18 rats. Cultured neurons were used in experiments 2-3 weeks after plating.
Spontaneous excitatory postsynaptic currents were recorded by the whole-cell variant of the patch clamp technique. The pipet solution usually contained (in mM) KCl 10, EGTA 11, sodium gluconate 3, potassium gluconate 140 and HEPES 10, adjusted to pH 7.2 with KOH. The bath solution contained (in mM) NaCl 150, KCl 4, CaCl2 1, and HEPES 10, adjusted to pH 7.2 with NaOH. Because NMDA-induced currents are subject to voltage-dependent block by extracellular Mg^2+, no magnesium salts were added to the bath solution. All records were made with the cell membrane potential clamped at -70 mV, which is very close to the Cl- equilibrium potential. Therefore, IPSCs are not expected to be observed and spontaneous activity should consist of EPSCs. The complete blockage of spontaneous activity by the co-application of the NMDA receptor antagonist APV and the non-NMDA receptor antagonist DNQX argues that the observed spontaneous activity is glutamate receptor-mediated.
Drug solutions were applied to single neurons by pressure ejection (15 psi) from 7-barrel pipets (tip opening ~3-5 μm) positioned ~50 μm from the neuronal soma. In all experiments, neurons received a 40s application of either steroid or steroid plus antagonist(s), followed by 10-20s pulse of external buffer solution.

NMDA receptor = settings: Wu et al. 1991, cited from earlier work

Structure (SMILES) | inhibition of the cell death induced by chronic NMDA ([1]; 100 μM 5β3α hemisuccinate) [%] | inhibition of the cell death produced by short term exposure to NMDA ([1]; 100 μM 5β3α hemisuccinate) [%] | protection against chronic NMDA-induced cell death ([1]; 10-100 μM 5β3αS, FIG. 5) | protection against short term NMDA excitotoxicity ([1]; 10-100 μM 5β3αS, FIG. 5) | block of cell death due to NMDA ([1]; steroid present during the exposure only) | block of cell death due to NMDA ([1]; steroid present only after the exposure) | effect on spontaneous EPSCs [2] | potentiation of EPSCs with NMDA receptors blocked ([2]; 100 μM steroid, APV (40 μM)) | EC50 ([2]; listed as pregnenolone sulfate) [µM] | EC50 [2] [µM] | potentiation of the NMDA response (NMDA receptor) [%] | EC50 (NMDA receptor; read-out: EC50 for potentiation of the NMDA response) [µM]
CC(=O)[C@H]1CC[C@H]2[C@@H]3CC[C@@H]4C[C@H](OC(=O)CCC(=O)O)CC[C@]4(C)[C@H]3CC[C@]12C [5β3αHS, 3α-hydroxy-5β-pregnan-20-one hemisuccinate] | 50 | 46 |  |  |  |  |  |  |  |  |  | 
CC(=O)[C@H]1CC[C@H]2[C@@H]3CC[C@@H]4C[C@H](OS(=O)(=O)O)CC[C@]4(C)[C@H]3CC[C@]12C [5β3αS, 3α-hydroxy-5β-pregnan-20-one sulfate] |  |  | ineffective against chronic NMDA-induced cell death | protects against short term NMDA excitotoxicity | completely blocked the cell death | considerably less effective | inhibits spontaneous EPSCs |  |  |  |  | 
CC(=O)C1CCC2C3CC=C4CC(OS(=O)(=O)O)CCC4(C)C3CCC12C (stereo not shown) [PS, pregnenolone sulfate] |  |  |  |  |  |  | potentiates spontaneous EPSCs; also recorded: potentiates spontaneous excitatory post-synaptic currents | reduced | 11.9 | 5.6 | 197 | 57
